In one test the test system is PPARγ target genes. Briefly: PPARγ target gene expression (real-time qPCR) in adipose tissue, pial arteries and PA, NP Sprague Dawley rats. The format is in vivo, rat. An excerpt:
Animals and Treatment Groups: All procedures were approved by the Institutional Animal Care and Use Committee and conducted in accordance with the National Institutes of Health Guide for the Care and Use of Laboratory Animals. Female virgin NP Sprague Dawley rats (250-300 g, 14-16 weeks, Charles River, Canada) were used for all experiments and housed in the University of Vermont Animal Care Facility. Animals were randomly selected and grouped as untreated (N=4), treated with recombinant human relaxin-2 (relaxin, 4 μg/hr; N=14), relaxin plus a specific PPARγ inhibitor GW9662 (10 mg/kg daily in food; N=8), or vehicle (20 mM sodium acetate; N=14) for 10 days through osmotic minipumps (Alzet 2ML2, Durect Corp., Cupertino, Calif., USA). GW9662 treatment was started 1 day before and for the duration of relaxin treatment to ensure PPARγ was inhibited. Animals were anesthetized with 3% isoflurane and minipumps implanted subcutaneously in the back of the neck. All animals received post-surgical analgesic (buprenorphine, 50 μg/kg, s.c.). Relaxin infusion was continuous for 10 days until animals were euthanized for vessel experiments and tissue collection. The minipumps used were capable of delivering relaxin for 14 days and thus tissue collection was within this duration.
Determination of RXFP1 and PPARγ Target Gene Expression: MCA and PA from 4 untreated rats were collected to determine expression level of RXFP1, the primary relaxin receptor, using real-time qPCR methods. We also collected adipose tissue, pial arteries, and PA from vehicle, relaxin and relaxin+GW9662 groups (n=6 for each group) for determination of PPARγ target gene expression. All collected samples were stored in RNase inhibitor (1 unit/μl, RiboLock, Fermentas, Glen Burnie, Md., USA) at −80° C. for comparing expression of fatty acid translocase (FAT)/CD36 and liver X receptors-α (LXRα) for adipose tissue, and plasminogen activator inhibitor-1 (PAI-1) for vasculature. Standard techniques for real-time qPCR were performed by the Vermont Cancer Center DNA analysis facility at the University of Vermont, as described previously Cipolla et al. (2009) Stroke 40, 1451-1457. Briefly, RNA was extracted from tissues and concentration and integrity was determined by a NanoDrop ND-1000 Spectrophotometer (Wilmington, Del.) and an Agilent 2100 Bioanalyzer (Santa Clara, Calif., USA), respectively. Samples with low RNA quality were excluded. cDNA was then made by a SuperScript III Kit (Invitrogen, Carlsbad, Calif., USA). Real-time qPCR was set up as follows: 10 μL Universal PCR Master Mix (Applied Biosystems, Foster City, Calif., USA), 1 μL Assay on Demand (Applied Biosystems), 8 μL water, and 1 μL cDNA. β2-microglobulin (B2M, housekeeping control) and target genes were assessed using Assays on Demand from Applied Biosystems. […] Primers were designed across an exon-exon junction to avoid detecting genomic DNA. Thus, no DNase treatment of samples was necessary. All samples were run in duplicates using a 7900HT Sequence Detection System (Applied Biosystems). […]
Data Calculations and Statistical Analysis: Percent tone was calculated as percent decrease in ID from the passive diameter at each intravascular pressure: [1−(IDactive/IDpassive)]×100%. Outer diameter (OD) was calculated from measured ID and WT: ID+2WT. Cross-sectional area (CSA) of the wall was calculated as: [(OD/2)2−(ID/2)2]×π. Data from qPCR study were analyzed using the −2^ΔΔCT method, as described previously Livak et al. (2001) Methods 25, 402-408. […]
A general note: Real-time PCR tracks product formation cycle by cycle.

The nature of test [1]: Conscious blood pressure, non-invasive tail-cuff method, SHR. The test is classed as in vivo, rat. The conditions noted are these: SHR-F, relaxin 4 μg/hr 14 days. As to the method: Systemic blood pressures were determined in all groups of animals using a non-invasive tail-cuff method (Chan, S. L., and Cipolla, M. J. (2011) Relaxin causes selective outward remodeling of brain parenchymal arterioles via activation of peroxisome proliferator-activated receptor-gamma. FASEB J 25, 3229-3239). For untreated WKY-F and SHR-F groups, blood pressures were measured on the day the animals were euthanized. For relaxin treated groups, blood pressures were measured on day 0 (baseline, before pump implant), 2, 7 and 14. All animals were trained for 3 days before actual blood pressure measurements were taken.

Regarding relaxin, the “Gene expression of CD36 in adipose tissue” value in the test on PPARγ target genes (relaxin vs vehicle, NP rats) is listed as “decreased”. For the same substance, the “PAI-1 expression in pial arteries” value in the test with PPARγ target genes (relaxin vs vehicle, NP rats) is recorded as “did not significantly change”. Besides, the “PAI-1 expression in PA” value in the test on PPARγ target genes (relaxin vs vehicle, NP rats, low sample numbers) is listed as “did not significantly change”. In addition, the “Gene expression of LXR-α in adipose tissue” value with PPARγ target genes (similar trend as CD36 (decrease with relaxin, normalized by GW9662)) was “not statistically significant”. Also, the Blood pressure entry in test [1] is “did not cause a lowering of blood pressure”; in test [1] (listed as Relaxin) it was “did not affect”.

(Values after patent US9393288B2, “Methods of treating diseases associated with PPARγ” (The University of Vermont and State Agricultural College, priority 2012, dated 2016).)
